Measurements taken from patent US11180474B2 (BRISTOL-MYERS SQUIBB COMPANY, priority 2016, dated 2021).
pIC50: −log10 of the molar value.

How the values were obtained:
[1] = target: T1, human TLR9 (Homo sapiens, UniProt Q9NR96); assay: TLR9 inhibition reporter assay (HEK-Blue cells, SEAP reporter, ODN2006 stimulation); format: cell-based; conditions: HEK-Blue cells overexpressing human TLR9, ODN2006 5 nM
T1 construct: host or cells: HEK-Blue cells
T1 sequence (Q9NR96 26-1032): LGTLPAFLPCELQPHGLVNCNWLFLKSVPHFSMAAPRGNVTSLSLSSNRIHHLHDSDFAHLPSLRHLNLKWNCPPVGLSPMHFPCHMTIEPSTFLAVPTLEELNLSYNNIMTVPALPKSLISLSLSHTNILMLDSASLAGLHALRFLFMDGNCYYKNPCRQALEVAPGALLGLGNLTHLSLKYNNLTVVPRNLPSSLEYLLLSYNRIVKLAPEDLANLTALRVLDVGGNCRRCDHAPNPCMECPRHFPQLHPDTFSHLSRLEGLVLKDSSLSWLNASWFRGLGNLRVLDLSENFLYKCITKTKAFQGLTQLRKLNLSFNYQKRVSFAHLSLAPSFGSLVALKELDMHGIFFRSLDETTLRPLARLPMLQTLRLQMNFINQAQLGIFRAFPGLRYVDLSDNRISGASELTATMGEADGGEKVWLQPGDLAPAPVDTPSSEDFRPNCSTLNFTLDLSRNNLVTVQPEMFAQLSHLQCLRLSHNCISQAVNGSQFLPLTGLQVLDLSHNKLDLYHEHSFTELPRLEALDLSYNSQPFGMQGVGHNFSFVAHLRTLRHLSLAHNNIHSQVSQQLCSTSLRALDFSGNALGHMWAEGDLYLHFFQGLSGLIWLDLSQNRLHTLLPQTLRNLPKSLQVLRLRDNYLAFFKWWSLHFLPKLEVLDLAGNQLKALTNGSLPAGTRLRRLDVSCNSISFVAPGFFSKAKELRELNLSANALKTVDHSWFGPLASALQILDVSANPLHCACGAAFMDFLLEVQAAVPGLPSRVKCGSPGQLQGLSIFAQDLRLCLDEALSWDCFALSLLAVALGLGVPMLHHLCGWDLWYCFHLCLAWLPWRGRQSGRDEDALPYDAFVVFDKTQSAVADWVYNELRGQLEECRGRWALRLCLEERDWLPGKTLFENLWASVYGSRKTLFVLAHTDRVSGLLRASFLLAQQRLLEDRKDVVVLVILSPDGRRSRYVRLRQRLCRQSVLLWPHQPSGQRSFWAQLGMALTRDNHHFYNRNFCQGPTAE
How it was run: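 Screening used HEK-Blue cells overexpressing one human TLR (7, 8 or 9) and an IFN-β minimal promoter–NF-κB/AP-1 SEAP construct. Stimulation lasted 22 h at 37 °C with receptor-specific agonist: gardiquimod, R848 or ODN2006 at 7.5 μM, 15.9 μM and 5 nM.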

[2] = tested on: TLR7; assay: In vivo mouse TLR7 PD model (gardiquimod challenge, plasma IL-6); conditions: oral
Method: In Vivo Mouse TLR7 and TLR9 PD Model:
Adult male C57BL/6 mice were used for the experiments. Mice (7 to 10 per group) were randomized into different treatment groups based on body weight. Mice from the respective treatment groups were administered orally with vehicle or test compound. Thirty min after the oral administration of vehicle or test compound, mice were challenged with intraperitoneal injection of gardiquimod for TLR7 PD model and CpG-ODN for TLR9 PD model. Ninety minutes after gardiquimod injection and 120 minutes after CpG-ODN injection, mice were bled under isoflurane anaesthesia and plasma IL-6 level was estimated by using commercially available ELISA kit (BD Biosciences). At the end of experiment, mean cytokine data was plotted and one way ANOVA with Dunnett's test was performed to calculate the significance of test compound treated group vs. vehicle control group. Percent inhibition of cytokine induction was calculated for test compound treated group vs vehicle control group.

Row | SMILES | pIC50 [1] | also measured
1 | COc1ccc(-c2[nH]c3ccc(C4CCN(C(=O)CN5CCC[C@@H](C(=O)N6CCN(CCN7CCCC7)CC6)C5)CC4)cc3c2C(C)C)cc1OC [Example 307, (R)-1-(4-(2-(3,4-dimethoxyphenyl)-3-isopropyl-1H-indol-5-yl)piperidin-1-yl)-2-(3-(4-(2-(pyrrolidin-1-yl)ethyl)piperazine-1-carbonyl)piperidin-1-yl)ethan-1-one] | 6.24 | –
2 | COc1ccc(-c2[nH]c3ccc(C4CCN(C(=O)CN5CCC[C@@H](C(=O)NCC#N)C5)CC4)cc3c2C(C)C)cc1OC [Example 308, (R)—N-(cyanomethyl)-1-(2-(4-(2-(3,4-dimethoxyphenyl)-3-isopropyl-1H-indol-5-yl)piperidin-1-yl)-2-oxoethyl)piperidine-3-carboxamide] | 5.58 | –
3 | COc1ccc(-c2[nH]c3ccc(C4CCN(C(=O)CN5CCC[C@@H](C(=O)NCC(N)=O)C5)CC4)cc3c2C(C)C)cc1OC [Example 309, (R)—N-(2-amino-2-oxoethyl)-1-(2-(4-(2-(3,4-dimethoxyphenyl)-3-isopropyl-1H-indol-5-yl)piperidin-1-yl)-2-oxoethyl)piperidine-3-carboxamide] | 5.16 | –
4 | COc1ccc(-c2[nH]c3ccc(C4CCN(C(=O)CN5CCC[C@@H](C(=O)N6CC7CNCC7C6)C5)CC4)cc3c2C(C)C)cc1OC (stereo partly drawn) [Example 310, 1-(4-(2-(3,4-dimethoxyphenyl)-3-isopropyl-1H-indol-5-yl)piperidin-1-yl)-2-((3R)-3-(octahydropyrrolo[3,4-c]pyrrole-2-carbonyl)piperidin-1-yl) ethan-1-one] | 5.28 | –
5 | COc1ccc(-c2[nH]c3ccc(C4CCN(C(=O)CN5CCC[C@@H](C(=O)N6C(C)CCC6C)C5)CC4)cc3c2C(C)C)cc1OC (stereo partly drawn) [Example 311, 1-(4-(2-(3,4-dimethoxyphenyl)-3-isopropyl-1H-indol-5-yl)piperidin-1-yl)-2-((3R)-3-(2,5-dimethylpyrrolidine-1-carbonyl)piperidin-1-yl)ethan-1-one] | 5.61 | –

Second part, led by results:

Row | pIC50 [1] | SMILES | also measured
6 | 5.86 | COc1ccc(-c2[nH]c3ccc(C4CCN(CC(=O)N(C)C)CC4)cc3c2C(C)C)cc1OC [Example 312, 2-(4-(2-(3,4-dimethoxyphenyl)-3-isopropyl-11H-indol-5-yl)piperidin-1-yl)-N,N-dimethylacetamide] | % inhibition of IL6 ([2]; dose 0.001 mg/kg): 34%; % inhibition of IL6 ([2]; dose 0.01 mg/kg): 39%; % inhibition of IL6 ([2]; dose 0.1 mg/kg): 59%; % inhibition of IL6 ([2]; dose 1 mg/kg): 82%
7 | 4.32 | COc1ccc(-c2[nH]c3ccc(C4CCN(C(=O)CO)CC4)cc3c2C(C)C)cc1OC [Example 313, 1-(4-(2-(3,4-dimethoxyphenyl)-3-isopropyl-1H-indol-5-yl)piperidin-1-yl)-2-hydroxyethanone] | –
8 | 4.57 | COc1ccc(-c2[nH]c3ccc(C4CCN(C(=O)COC(C)C)CC4)cc3c2C(C)C)cc1OC [Example 314, 1-(4-(2-(3,4-dimethoxyphenyl)-3-isopropyl-1H-indol-5-yl)piperidin-1-yl)-2-isopropoxyethan-1-one] | –
